Where “and” joins values, the source holds several entries; their conditions need not be identical. Identical values can stand only once. Like-named read-outs stand apart in the source and are kept apart here.
Key:
[1] = system: isolated rat hepatocytes; assay: Glycogenolysis inhibition in isolated rat hepatocytes; type: cell-based; details: mean ± S.D. of three, NI means no inhibition
Description: (§1) To evaluate the effects of all compounds in cells, the glycogenolysis assays were established in both rat and human liver cells based on the published method. […] The inhibitory activities of the derivatives of PSN-357 (e.g. 25–28) were also explored. It is not surprising that the derivatives still retained micromolar inhibitory activities. Introduction of steric bulks to the hydroxyl group (e.g. 33, 40, 42, 48) led to a complete loss of activity. Data analysis indicated no clear SAR for the substitutents in the cell-based assays.
(§2) The inhibition of hepatic glycogenolysis was monitored by the measurement of liver glycogen, which was done quantitatively by the anthrone reagent (Sigma) colorimetric method based on the published method. Isolated rat hepatocytes or HepG2 cells (Sigma) were treated with the test compound or DMSO solvent (final concentration, 0.10%), followed by 60-min incubation with 0.3 nM glucagon (GGN). Assays were terminated by centrifugation, and cells were digested with 30% KOH followed by glycogen determination. The IC50 values were estimated by fitting the inhibition data to a dose-dependent curve using a logistic derivative equation.

[2] = system: HepG2 cells; assay: Glycogenolysis inhibition in HepG2 cells; type: cell-based, human; details: HepG2 cells, 60-min incubation with 0.3 nM glucagon, mean ± S.D. of three, NI means no inhibition, read-out: IC50 (glycogenolysis inhibition, HepG2 cells)
Description: as §1, §2

[3] = Stability in simulated gastric fluid (SGF); type: in vitro ADME; details: SGF pH 1.21 with pepsin, 2 μM, 37 °C; for stability in SGF (in words): 24 h incubation
Description: (§3) All the conjugates were tested for their chemical and metabolic stability in multiple assays, including simulated gastric fluid (SGF), simulated interstinal fluid (SIF), mouse plasma, and mouse liver microsome (MLM).
(§4) For the stability in SGF (Fig. 8) and SIF (Fig. 9), the conjugates could be divided into three groups: (1) stable conjugates 2, 6 and 9. […] The two conjugates were degraded within 6 h and 1 h in SGF and SIF, respectively, with alomost no conjugates at the end of the 24 h incubation in both SGF and SIF; (3) complicated conjugates 3, 4, 5 and 8.
(§5) The simulated gastrointestinal fluids were prepared according to USP specifications. For SGF, NaCl (0.12 g) and pepsin (0.18 g, from porcine stomach mucosa) was dissolved in HCl (0.42 mL) and sufficient H2O was added to make 60 mL. The pH of the test solution was determined as 1.21 by pH meter. For the SIF, KH2PO4 (0.408 g) and pancreatin (0.6 g, from porcine pancreas) was dissolved in H2O (60 mL). The pH of the test solution was determined as 6.79 by pH meter. Each test compound was dissolved in DMSO and diluted to a final concentration of 2 μM in SIF and SGF. The final concentrations of DMSO and CH3CN in the incubation mixture were 0.2% and 0.45%. Aliquots of these solutions were pipetted into glass tubes, and placed in a 37 °C shaking water bath. Test samples at corresponding time point (1, 2, 6, 24 h) were removed at the end of incubation time and immediately mixed with 800 μL of cold acetonitrile containing 500 ng/mL tolbutamide (internal standard). Samples were subjected to centrifuge at 4000 rpm, 4 °C for 20 min. Aliquots 60 μL of supernatant was combined with 120 μL water for LC-MS/MS analysis.

[4] = Stability in simulated intestinal fluid (SIF); type: in vitro ADME; details: for time within which degraded in SIF: SIF pH 6.79 with pancreatin, 2 μM, 37 °C
Description: as §3, §4, §5

[5] = Stability in mouse liver microsomes (MLM); type: in vitro ADME; details: for CLint scaled at 10 μM / half-life at 10 μM / microsomal CLint at 10 μM: C57BL/6, pH 7.4, n = 3
Description: Additionally, the compounds’ stability in microsome were evaluated by measuring the rate of compounds consumpation in MLM and the results are shown in Table 3.
The microsomal pellet was suspended in potassium phosphate buffer (100 mM, pH 7.4), 10 μM test compound or positive control (diclofenac) was added. Liver microsomes from C57BL/6 mice (BD Gentest) were pooled. The mixture of microsome solution and compound was incubated at 37 °C for about 10 min in the presence of a NADPH-regenerating system, consisting of 0.02 M DL-isocitric acid (trisodium salt), 0.1 mg/mL isocitrate dehydrogenase and 1 mM NADPH. The addition of ice-cold CH3CN (including 100 ng/mL tolbutamide as internal standard) terminated the reaction. The mixture was vortexed for approx (30 s), centrifuged (20 min, 4000 rpm) and the supernatant was collected and analysed by LC-MS/MS method.

[6] = target: T1, rabbit muscle GPa (RMGPa) (Oryctolagus cuniculus, UniProt P00489); assay: RMGPa inhibition assay (phosphate release from glucose-1-phosphate); type: biochemical; details: mean ± S.D. of three determinations; NI means no inhibition
T1 sequence (P00489 2-843 limits assumed): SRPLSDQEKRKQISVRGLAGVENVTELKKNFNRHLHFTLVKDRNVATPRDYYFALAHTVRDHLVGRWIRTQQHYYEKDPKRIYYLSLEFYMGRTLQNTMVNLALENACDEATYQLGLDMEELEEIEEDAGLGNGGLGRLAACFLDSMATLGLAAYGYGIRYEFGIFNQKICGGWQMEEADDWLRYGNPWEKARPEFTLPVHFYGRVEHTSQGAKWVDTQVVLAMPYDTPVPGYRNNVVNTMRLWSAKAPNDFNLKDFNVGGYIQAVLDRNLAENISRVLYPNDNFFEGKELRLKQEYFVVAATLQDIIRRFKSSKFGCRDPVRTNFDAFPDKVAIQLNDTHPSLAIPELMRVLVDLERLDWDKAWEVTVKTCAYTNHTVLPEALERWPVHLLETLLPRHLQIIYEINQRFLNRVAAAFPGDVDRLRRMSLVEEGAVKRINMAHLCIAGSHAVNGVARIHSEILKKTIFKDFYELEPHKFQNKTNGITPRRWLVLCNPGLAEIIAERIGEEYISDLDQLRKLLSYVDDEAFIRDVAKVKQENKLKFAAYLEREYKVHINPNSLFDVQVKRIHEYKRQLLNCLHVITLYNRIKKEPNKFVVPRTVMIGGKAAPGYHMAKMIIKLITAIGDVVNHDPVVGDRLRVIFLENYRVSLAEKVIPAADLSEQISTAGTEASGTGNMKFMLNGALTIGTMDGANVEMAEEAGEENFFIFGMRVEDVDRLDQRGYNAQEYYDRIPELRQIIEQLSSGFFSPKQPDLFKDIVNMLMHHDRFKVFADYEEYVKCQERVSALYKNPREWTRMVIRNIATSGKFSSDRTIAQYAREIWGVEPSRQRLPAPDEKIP
Description: All the compounds were evaluated for their inhibitory activity against rabbit muscle GPa (RMGPa). The activity of RMGPa was measured through detecting the release of phosphate from glucose-1-phosphate in the direction of glycogen synthesis. CP-91149, a well-known allosteric GP inhibitor, which shares the same binding site with PSN-357, was used as the positive control and the results are summarized in Table 1[21]. […] This remarkable loss of activity was probably due to the direct steric interference by such bulky substituent of cholic acid group. […] The results is consistent with the SARs of PSN-357 that the hydroxyl of piperidine is not an essential group for the GP inhibitory activity that could be modified slightly.
The inhibitory activity of the test compounds against rabbit muscle glycogen phosphorylase a (GPa) was monitored using microplate reader (BIO-RAD) based on the published method. In brief, GPa activity was measured in the direction of glycogen synthesis by the release of phosphate from glucose-1-phosphate. Each test compound was dissolved in DMSO and diluted at different concentrations for IC50 determination. The enzyme was added into 100 μL of buffer containing 50 mM Hepes (pH = 7.2), 100 mM KCl, 2.5 mM MgCl2, 0.5 mM glucose-1-phosphate, 1 mg/mL glycogen and the test compound in 96-well microplates (Costar). After the addition of 150 μL of 1 M HCl containing 10 mg/mL ammonium molybdate and 0.38 mg/mL malachite green, reactions were run at 22 °C for 25 min, and then the phosphate absorbance was measured at 655 nm. The IC50 values were estimated by fitting the inhibition data to a dose-dependent curve using a logistic derivative equation.

[7] = Rattus norvegicus, Hepatocyte, 1 h, read-out: IC50 (glycogenolysis inhibition, rat hepatocytes), isolated rat hepatocytes, 60-min incubation with 0.3 nM glucagon

SMILES	IC50 [1, 7] [µM]	IC50 ([2]; Homo sapiens, HepG2, 1 h) [µM]	time within which degraded in SGF [3] [h]	time within which degraded in SIF [4] [h]	CLint scaled at 10 μM [5] [mL/min/kg]	half-life at 10 μM [5] [min]	microsomal CLint at 10 μM [5] [µL/min/mg]	IC50 [6]	IC50 ([1]; read-out: IC50 (glycogenolysis inhibition, rat hepatocytes), isolated rat hepatocytes, 60-min incubation with 0.3 nM glucagon) [µM]	IC50 [2] [µM]	stability in SGF (in words) [3]	fraction degraded during 24 h incubation in SIF [4]	metabolic stability in MLM (in words) [5]	melting point [°C]
C[C@H](CCC(=O)NCC(=O)OC1CCN(C(=O)[C@H](Cc2ccc(F)cc2)NC(=O)c2cc3cc(Cl)ncc3[nH]2)CC1)[C@H]1CC[C@H]2[C@@H]3[C@H](O)C[C@@H]4C[C@H](O)CC[C@]4(C)[C@H]3C[C@H](O)[C@]12C [Conjugate 1]	41.1 ± 5.11	203 ± 3.39	≤ 6	≤ 1	172	31.9	43.4	5.9 µM and 5.94 µM	–	–	–	–	–	–
C[C@H](CCC(=O)NCCNC(=O)c1ccc(/N=N/c2ccccc2CCC(=O)OC2CCN(C(=O)[C@H](Cc3ccc(F)cc3)NC(=O)c3cc4cc(Cl)ncc4[nH]3)CC2)cc1)[C@H]1CC[C@H]2[C@@H]3[C@H](O)C[C@@H]4C[C@H](O)CC[C@]4(C)[C@H]3C[C@H](O)[C@]12C [Conjugate 9]	12.3	6.4	–	–	60.2	91.2	15.2	51.7 ± 4.1 µM	12.3 ± 3.93	6.41 ± 1.25	stable	no more than 20%	considerable metabolic stability	172 to 174
C[C@H](CCC(=O)N(C)CC(=O)OC1CCN(C(=O)[C@H](Cc2ccc(F)cc2)NC(=O)c2cc3cc(Cl)ncc3[nH]2)CC1)[C@H]1CC[C@H]2[C@@H]3[C@H](O)C[C@@H]4C[C@H](O)CC[C@]4(C)[C@H]3C[C@H](O)[C@]12C [Conjugate 2]	845 ± 132	172 ± 18.2	–	–	220	24.9	55.6	26 ± 13.9 µM	–	–	stable	no more than 20%	–	183 to 185
CC(NC(=O)C(NC(=O)CCC(C)C1CCC2C3C(O)CC4CC(O)CCC4(C)C3CC(O)C12C)C(C)C)C(=O)OC1CCN(C(=O)C(Cc2ccc(F)cc2)NC(=O)c2cc3cc(Cl)ncc3[nH]2)CC1 (centres unmarked) [Conjugate 7]	42.1 ± 10.9	11.7 ± 3.8	≤ 6	≤ 1	1180	4.7	297	6.07 ± 0.27 µM	–	–	–	–	–	–
C[C@H](CCC(=O)N[C@@H](CO)C(=O)OC1CCN(C(=O)[C@H](Cc2ccc(F)cc2)NC(=O)c2cc3cc(Cl)ncc3[nH]2)CC1)[C@H]1CC[C@H]2[C@@H]3[C@H](O)C[C@@H]4C[C@H](O)CC[C@]4(C)[C@H]3C[C@H](O)[C@]12C [Conjugate 5]	–	–	–	≤ 1	135	40.8	34	81.9 ± 14.4 µM	–	–	relatively stable	–	–	175 to 177
CC(CCC(=O)NC(Cc1ccccc1)C(=O)NC(CCCCN)C(=O)OC1CCN(C(=O)C(Cc2ccc(F)cc2)NC(=O)c2cc3cc(Cl)ncc3[nH]2)CC1)C1CCC2C3C(O)CC4CC(O)CCC4(C)C3CC(O)C12C (centres unmarked) [Conjugate 8]	64.5 ± 4.4	36.8 ± 4.14	–	≤ 1	64.2	85.6	16.2	10.7 ± 5.6 µM	–	–	relatively stable	–	considerable metabolic stability	–
